Measurements taken from ChEMBL document CHEMBL1909046, “DrugMatrix in vitro pharmacology data”.

Experiments:
[1] = DRUGMATRIX: Leukotriene, BLT (LTB4) radioligand binding (ligand: [3H]LTB4); format: cell membranes, Membrane; conditions: u-937, Not Active = under 50% inhibition at 10 µM
[2] = DRUGMATRIX: Glutamate, AMPA radioligand binding (ligand: [3H] AMPA); format: cell membranes, Rattus norvegicus, Wistar, Cerebral cortex, Membrane; conditions: Not Active = under 50% inhibition at 10 µM
[3] = DRUGMATRIX: ATPase, Na+/K+ enzyme inhibition (substrate: ATP); format: tissue-based, Sus scrofa, Heart; conditions: Not Active = under 50% inhibition at 10 µM
Thromboxane-A synthase = target: T1, Thromboxane-A synthase (Homo sapiens, UniProt P24557); assay: biochemical; format: tissue-based, Platelet; conditions: platelet;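 also: enzyme inhibition assay with PGH2 supplied as substrate; in other assays of this panel Not Active means under 50% inhibition at 10 µM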
T1 sequence (P24557 whole entry): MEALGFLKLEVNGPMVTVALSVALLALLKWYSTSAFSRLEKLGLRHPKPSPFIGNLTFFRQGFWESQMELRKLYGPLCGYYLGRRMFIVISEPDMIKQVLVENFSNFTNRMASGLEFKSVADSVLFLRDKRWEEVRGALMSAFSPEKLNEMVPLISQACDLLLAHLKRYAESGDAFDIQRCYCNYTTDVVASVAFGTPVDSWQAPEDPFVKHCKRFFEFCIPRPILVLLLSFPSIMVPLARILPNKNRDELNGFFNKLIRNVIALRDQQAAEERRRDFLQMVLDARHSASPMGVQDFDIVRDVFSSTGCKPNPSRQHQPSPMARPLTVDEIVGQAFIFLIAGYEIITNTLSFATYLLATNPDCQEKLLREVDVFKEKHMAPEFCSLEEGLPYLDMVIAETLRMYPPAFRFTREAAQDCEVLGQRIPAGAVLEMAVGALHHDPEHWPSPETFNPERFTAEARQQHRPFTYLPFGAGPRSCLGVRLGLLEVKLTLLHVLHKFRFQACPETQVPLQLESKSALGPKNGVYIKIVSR

[4] = target: Matrix metalloproteinase-9 (Homo sapiens, UniProt P14780); format: cell-based;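 also: inhibition of isolated MMP-9 enzyme activity toward a synthetic peptide substrate, from the DrugMatrix protease screening panel; in other assays of this panel Not Active means under 50% inhibition at 10 µM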
Matrix metalloproteinase-9, sequence (P14780 whole entry): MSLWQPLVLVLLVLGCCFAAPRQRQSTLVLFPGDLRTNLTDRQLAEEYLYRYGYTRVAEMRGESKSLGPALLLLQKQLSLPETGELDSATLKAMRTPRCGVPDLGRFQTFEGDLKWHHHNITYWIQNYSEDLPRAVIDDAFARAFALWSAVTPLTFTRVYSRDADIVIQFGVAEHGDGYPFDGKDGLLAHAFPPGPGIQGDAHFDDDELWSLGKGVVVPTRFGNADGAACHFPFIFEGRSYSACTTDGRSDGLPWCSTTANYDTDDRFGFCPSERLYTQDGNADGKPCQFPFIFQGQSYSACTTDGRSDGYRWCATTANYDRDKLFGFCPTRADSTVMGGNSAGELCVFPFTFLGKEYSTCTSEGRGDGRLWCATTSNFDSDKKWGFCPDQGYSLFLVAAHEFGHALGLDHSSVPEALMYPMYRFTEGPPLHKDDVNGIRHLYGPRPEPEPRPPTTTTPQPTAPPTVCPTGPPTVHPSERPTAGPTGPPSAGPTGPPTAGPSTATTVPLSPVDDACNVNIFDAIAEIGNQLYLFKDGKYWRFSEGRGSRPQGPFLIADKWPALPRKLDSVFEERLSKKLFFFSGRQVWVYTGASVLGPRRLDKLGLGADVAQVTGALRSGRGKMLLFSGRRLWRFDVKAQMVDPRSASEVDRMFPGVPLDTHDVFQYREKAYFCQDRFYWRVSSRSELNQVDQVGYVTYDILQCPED

Melanocortin receptor 5 = Melanocortin receptor 5 (Homo sapiens, UniProt P33032); format: cell membranes, HEK293, Membrane; conditions: hek293; also: in other assays of this panel Not Active means under 50% inhibition at 10 µM
Melanocortin receptor 5, sequence (P33032 whole entry): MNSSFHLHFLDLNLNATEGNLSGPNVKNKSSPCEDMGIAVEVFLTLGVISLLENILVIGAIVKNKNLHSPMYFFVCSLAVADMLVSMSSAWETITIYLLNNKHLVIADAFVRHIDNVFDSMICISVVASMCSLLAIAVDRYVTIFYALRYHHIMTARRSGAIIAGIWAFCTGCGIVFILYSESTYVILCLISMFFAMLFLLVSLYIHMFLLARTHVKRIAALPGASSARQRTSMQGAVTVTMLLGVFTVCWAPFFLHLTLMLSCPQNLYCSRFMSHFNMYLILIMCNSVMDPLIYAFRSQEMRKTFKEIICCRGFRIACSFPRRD

[5] = target: T2, C-C chemokine receptor type 4 (Homo sapiens, UniProt P51679); format: cell membranes, Membrane; conditions: chem-1; also: in other assays of this panel Not Active means under 50% inhibition at 10 µM
T2 sequence (P51679 whole entry): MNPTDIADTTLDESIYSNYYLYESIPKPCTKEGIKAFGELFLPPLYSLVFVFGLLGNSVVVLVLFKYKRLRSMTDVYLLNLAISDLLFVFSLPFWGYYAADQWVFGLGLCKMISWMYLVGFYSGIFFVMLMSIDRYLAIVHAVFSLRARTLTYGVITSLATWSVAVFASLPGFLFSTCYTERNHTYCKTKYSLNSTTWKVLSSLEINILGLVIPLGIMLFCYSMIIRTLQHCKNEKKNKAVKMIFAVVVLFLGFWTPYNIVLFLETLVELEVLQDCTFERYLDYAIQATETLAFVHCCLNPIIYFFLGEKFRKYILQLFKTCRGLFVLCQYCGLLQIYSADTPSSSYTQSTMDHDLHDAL

SMILES | IC50 [1] | Ki [1] | IC50 [2] | Ki [2] | IC50 [3] | Ki [3] | IC50 (Thromboxane-A synthase) | IC50 [4] | IC50 (Melanocortin receptor 5) | IC50 [5] | IC50 ([3]; read-out: IC50) | IC50 ([1]; read-out: IC50) | Ki ([1]; read-out: Ki)
C[C@H]1COc2c(N3CCN(C)CC3)c(F)cc3c(=O)c(C(=O)O)cn1c23.C[C@H]1COc2c(N3CCN(C)CC3)c(F)cc3c(=O)c(C(=O)O)cn1c23.O [LEVOFLOXACIN] | Not Active | Not Active | Not Active | Not Active | Not Active | Not Active | Not Active | Not Active | Not Active | Not Active |  |  | 
CCn1cc(C(=O)O)c(=O)c2cc(F)c(N3CCNC(C)C3)c(F)c21 (centres undefined) [LOMEFLOXACIN] | Not Active | Not Active | Not Active | Not Active | Not Active | Not Active | Not Active | Not Active | Not Active | Not Active |  |  | 
CN1CCCC(CN2c3ccccc3Sc3ccccc32)C1 (centres undefined) [MEPAZINE] | Not Active | Not Active | Not Active | Not Active | Not Active | Not Active | Not Active | Not Active | Not Active | Not Active |  |  | 
Cc1cccc(C)c1NC(=O)C1CCCCN1C (centres undefined) [MEPIVACAINE] | Not Active | Not Active | Not Active | Not Active | Not Active | Not Active | Not Active | Not Active | Not Active | Not Active |  |  | 
CN(C)C(=N)NC(=N)N [METFORMIN] | Not Active | Not Active | Not Active | Not Active | Not Active | Not Active | Not Active | Not Active | Not Active | Not Active |  |  | 
CC(C)(C)NCC(O)COc1cccc2c1CC(O)C(O)C2 (centres undefined) [NADOLOL] | Not Active | Not Active | Not Active | Not Active | Not Active | Not Active | Not Active | Not Active | Not Active | Not Active |  |  | 
C[C@]12CC[C@H]3[C@@H](CCC4=CC(=O)CC[C@@H]43)[C@@H]1CC[C@@H]2O [NANDROLONE] | Not Active | Not Active | Not Active | Not Active | Not Active | Not Active | Not Active | Not Active | Not Active | Not Active |  |  | 
C[C@@H]1C/C=C/C=C/C=C/C=C/[C@H](O[C@@H]2O[C@H](C)[C@@H](O)[C@H](N)[C@@H]2O)C[C@@H]2O[C@](O)(C[C@@H](O)C[C@H]3O[C@@H]3/C=C/C(=O)O1)C[C@H](O)[C@H]2C(=O)O [NATAMYCIN] | Not Active | Not Active | Not Active | Not Active | Not Active | Not Active | Not Active | Not Active | Not Active | Not Active |  |  | 
CN(C)C(=O)Oc1cccc([N+](C)(C)C)c1.[Br-] [NEOSTIGMINE BROMIDE] | Not Active | Not Active | Not Active | Not Active | Not Active | Not Active | Not Active | Not Active | Not Active | Not Active |  |  | 
NC(=O)c1cccnc1 [NIACINAMIDE] | Not Active | Not Active | Not Active | Not Active | Not Active | Not Active | Not Active | Not Active | Not Active | Not Active |  |  | 
CS(=O)(=O)Nc1ccc([N+](=O)[O-])cc1Oc1ccccc1 [NIMESULIDE] | Not Active | Not Active | Not Active | Not Active | Not Active | Not Active | Not Active | Not Active | Not Active | Not Active |  |  | 
CN1C(=O)CN=C(c2ccccc2)c2cc([N+](=O)[O-])ccc21 [NIMETAZEPAM] | Not Active | Not Active | Not Active | Not Active | Not Active | Not Active | Not Active | Not Active | Not Active | Not Active |  |  | 
COc1ccc2c(c1OC)C(=O)O[C@@H]2[C@H]1c2c(cc3c(c2OC)OCO3)CCN1C [NOSCAPINE] | Not Active | Not Active | Not Active | Not Active | Not Active | Not Active | Not Active | Not Active | Not Active | Not Active |  |  | 
C[C@@H]1O[C@@H](O[C@H]2C[C@@H](O)[C@]3(CO)[C@H]4[C@H](O)C[C@]5(C)[C@@H](C6=CC(=O)OC6)CC[C@]5(O)[C@@H]4CC[C@]3(O)C2)[C@H](O)[C@H](O)[C@H]1O [OUABAIN] | Not Active | Not Active | Not Active | Not Active |  |  | Not Active | Not Active | Not Active | Not Active | 678 nM |  | 
NC(=O)N1c2ccccc2CC(=O)c2ccccc21 [OXCARBAZEPINE] | Not Active | Not Active | Not Active | Not Active | Not Active | Not Active | Not Active | Not Active | Not Active | Not Active |  |  | 
COc1ccnc(C[S+]([O-])c2nc3ccc(OC(F)F)cc3[nH]2)c1OC (centres undefined) [PANTOPRAZOLE] | Not Active | Not Active | Not Active | Not Active | Not Active | Not Active | Not Active | Not Active | Not Active | Not Active |  |  | 
N=C(N)c1ccc(OCCCCCOc2ccc(C(=N)N)cc2)cc1 [PENTAMIDINE] |  |  | Not Active | Not Active | Not Active | Not Active | Not Active | Not Active | Not Active | Not Active |  | 0.242 µM | 0.061 µM
NNCCc1ccccc1 [PHENELZINE] | Not Active | Not Active | Not Active | Not Active | Not Active | Not Active | Not Active | Not Active | Not Active | Not Active |  |  | 
CCc1ccc(CCOc2ccc(CC3SC(=O)NC3=O)cc2)nc1 (centres undefined) [PIOGLITAZONE] |  |  | Not Active | Not Active | Not Active | Not Active | Not Active | Not Active | Not Active | Not Active |  | 86.9 µM | 22.1 µM
CCCNC(C)C(=O)Nc1ccccc1C (centres undefined) [PRILOCAINE] | Not Active | Not Active | Not Active | Not Active | Not Active | Not Active | Not Active | Not Active | Not Active | Not Active |  |  | 
CCN(CC)CCNC(=O)c1ccc(N)cc1 [PROCAINAMIDE] | Not Active | Not Active | Not Active | Not Active | Not Active | Not Active | Not Active | Not Active | Not Active | Not Active |  |  | 
CCN(CC)CCCC(C)Nc1c2ccc(Cl)cc2nc2ccc(OC)cc12 (centres undefined) [QUINACRINE] | Not Active | Not Active | Not Active | Not Active | Not Active | Not Active | Not Active | Not Active | Not Active | Not Active |  |  | 
C[C@]12C=CC(=O)C=C1CC[C@H]1[C@@H]3C[C@@H](O)[C@](O)(C(=O)CO)[C@@]3(C)C[C@H](O)[C@@]12F [TRIAMCINOLONE] | Not Active | Not Active | Not Active | Not Active | Not Active | Not Active | Not Active | Not Active | Not Active | Not Active |  |  | 
